Test results as given in patent US20130029928A1 (priority 2010, published 2013).
Read-outs that look alike come from different tables or passages of the source.

Experiment: Phase I study CXR1002-001: plasma pharmacokinetics (LC-MS/MS)
Type: in vivo, human
Settings: human, plasma, oral; for concentration at 528 h / concentration at 528 hr: 528 hr (Day 23); for concentration at 696 h: 696 hr (Day 30); for concentration at 840 h: 840 hr (Day 36)
Text: PK samples, PD (fasting) samples, blood glucose, and blood triglyceride samples, were taken over a 6-week period.
Dose limiting toxicity (DLT) will be based on the toxicity assessments over the first 3-week period of the repeat dosing schedule. PK samples (single blood sample) were taken on the following basis: • Every 6 weeks during the repeat dosing phase • If dosing is interrupted or stopped, samples will be taken at intervals according to patient convenience • PK sampling for safety evaluation may take place at any time, as clinically indicated
Plasma samples were collected after the single 50 mg dose at the following timepoints: Pre-dose, and then 0.25, 0.5, 0.75, 1, 1.5, 2, 3, 4, 6, 24, 48, and 72 hours after administration and then once weekly at weeks 2, 3, 4, 5, and 6 (days 8, 15, 22, 29, and 36). For patients treated with the weekly repeat dose, plasma samples were collected at the following timepoints: Pre-dose and then 2, 3, 4 and 24 hours after administration for a total of 6 weeks. Thereafter a single sample was collected every 6 weeks for monitoring of exposure during long term treatment. Plasma samples were processed at site and stored at −80° C. prior to batch shipment to the analytical laboratory.

[1] = 100 mg, Patient 005 Dose 100 mg, read-out: Concentration
[2] = 100 mg, Patient 006 Dose 100 mg, read-out: Concentration
[3] = 100 mg, Patient 007 Dose 100 mg, read-out: Concentration
[4] = 200 mg, Patient 008 Dose 200 mg, read-out: Concentration
[5] = 200 mg, Patient 009 Dose 200 mg, read-out: Concentration

O=C(O)C(F)(F)C(F)(F)C(F)(F)C(F)(F)C(F)(F)C(F)(F)C(F)(F)F [CXR1002]
concentration at 360 h (100 mg, Patient 005 Dose 100 mg, 360 hr (Day 16), read-out: Concentration): 47.4 µM
concentration at 504 h (100 mg, Patient 005 Dose 100 mg, 504 hr (Day 22), read-out: Concentration): 48.4 µM
concentration at 506 h (100 mg, Patient 005 Dose 100 mg, 506 hr, read-out: Concentration): 84 µM
concentration at 507 h [1]: 74.4 µM
concentration at 508 h (100 mg, Patient 005 Dose 100 mg, 508 hr, read-out: Concentration): 87.4 µM
concentration at 528 h [1]: 57.9 µM
concentration at 672 h (100 mg, Patient 005 Dose 100 mg, 672 hr (Day 29), read-out: Concentration): 80.8 µM
concentration at 674 h (100 mg, Patient 005 Dose 100 mg, 674 hr, read-out: Concentration): 99.7 µM
concentration at 675 h (100 mg, Patient 005 Dose 100 mg, 675 hr, read-out: Concentration): 101 µM
concentration at 676 h [1]: 82.7 µM
concentration at 696 h [1]: 78.8 µM
concentration at 840 h [1]: 99.4 µM
concentration at 842 h (100 mg, Patient 005 Dose 100 mg, 842 hr, read-out: Concentration): 80 µM
concentration at 843 h (100 mg, Patient 005 Dose 100 mg, 843 hr, read-out: Concentration): 98.9 µM
concentration at 844 h (100 mg, Patient 005 Dose 100 mg, 844 hr, read-out: Concentration): 91.4 µM
concentration at 864 h (100 mg, Patient 005 Dose 100 mg, 864 hr (Day 37), read-out: Concentration): 109 µM
concentration at 92 day (100 mg, Patient 005 Dose 100 mg, Day 92): 276 µM
concentration at 0 h (100 mg, Patient 006 Dose 100 mg): 0.21 µM
concentration at 2 h [2]: 32.3 µM
concentration at 3 h [2]: 27.1 µM
concentration at 4 h (100 mg, Patient 006 Dose 100 mg, 4 hr, read-out: Concentration): 24.6 µM
concentration at 24 h (100 mg, Patient 006 Dose 100 mg, 24 hr (Day 2), read-out: Concentration): 28.2 µM
concentration at 168 h (100 mg, Patient 006 Dose 100 mg, 168 hr (Day 8), read-out: Concentration): 26.2 µM
concentration at 170 h [2]: 36.6 µM
concentration at 171 hr (100 mg, Patient 006 Dose 100 mg, 171 hr, read-out: Concentration): 41.1 µM
concentration at 172 hr (100 mg, Patient 006 Dose 100 mg, 172 hr, read-out: Concentration): 47.5 µM
concentration at 192 hr (100 mg, Patient 006 Dose 100 mg, 192 hr (Day 9), read-out: Concentration): 44.7 µM
concentration at 336 h (100 mg, Patient 006 Dose 100 mg, 336 hr (Day 15), read-out: Concentration): 33.1 µM
concentration at 338 h [2]: 49.5 µM
concentration at 339 h [2]: 55.9 µM
concentration at 360 h (100 mg, Patient 006 Dose 100 mg, 360 hr (Day 16), read-out: Concentration): 65.2 µM
concentration at 504 h (100 mg, Patient 006 Dose 100 mg, 504 hr (Day 22), read-out: Concentration): 70.5 µM
concentration at 506 h (100 mg, Patient 006 Dose 100 mg, 506 hr, read-out: Concentration): 76.4 µM
concentration at 507 hr [2]: 83.8 µM
concentration at 528 hr [2]: 97 µM
concentration at 672 h (100 mg, Patient 006 Dose 100 mg, 672 hr (Day 29), read-out: Concentration): 86.9 µM
concentration at 674 h (100 mg, Patient 006 Dose 100 mg, 674 hr, read-out: Concentration): 85.7 µM
concentration at 696 h [2]: 89.5 µM
concentration at 840 h [2]: 85.6 µM
concentration at 842 hr (100 mg, Patient 006 Dose 100 mg, 842 hr, read-out: Concentration): 179 µM
concentration at 843 hr (100 mg, Patient 006 Dose 100 mg, 843 hr, read-out: Concentration): 138 µM
concentration at 844 hr (100 mg, Patient 006 Dose 100 mg, 844 hr, read-out: Concentration): 138 µM
concentration at 864 hr (100 mg, Patient 006 Dose 100 mg, 864 hr (Day 37), read-out: Concentration): 123 µM
concentration at 0 hr (100 mg, Patient 007 Dose 100 mg): 0 nM
concentration at 2 hr [3]: 30.9 µM
concentration at 3 hr [3]: 28.6 µM
concentration at 4 hr (100 mg, Patient 007 Dose 100 mg, 4 hr, read-out: Concentration): 19.3 µM
concentration at 24 hr (100 mg, Patient 007 Dose 100 mg, 24 hr (Day 2), read-out: Concentration): 17.3 µM
concentration at 168 hr (100 mg, Patient 007 Dose 100 mg, 168 hr (Day 8), read-out: Concentration): 12.2 µM
concentration at 336 hr (100 mg, Patient 007 Dose 100 mg, 336 hr (Day 15), read-out: Concentration): 19.2 µM
concentration at 338 hr [3]: 52.8 µM
concentration at 339 hr [3]: 53.1 µM
concentration at 340 hr (100 mg, Patient 007 Dose 100 mg, 340 hr, read-out: Concentration): 55.8 µM
concentration at 360 hr (100 mg, Patient 007 Dose 100 mg, 360 hr (Day 16), read-out: Concentration): 32 µM
concentration at 504 hr (100 mg, Patient 007 Dose 100 mg, 504 hr (Day 22), read-out: Concentration): 39.7 µM
concentration at 506 hr (100 mg, Patient 007 Dose 100 mg, 506 hr, read-out: Concentration): 53.1 µM
concentration at 507 hr [3]: 65.8 µM
concentration at 508 hr (100 mg, Patient 007 Dose 100 mg, 508 hr, read-out: Concentration): 73 µM
concentration at 528 hr [3]: 63.4 µM
concentration at 0 hr (200 mg, Patient 008 Dose 200 mg): 0 nM
concentration at 2 hr [4]: 114 µM
concentration at 3 hr [4]: 102 µM
concentration at 4 h (200 mg, Patient 008 Dose 200 mg, 4 hr, read-out: Concentration): 81 µM
concentration at 24 h (200 mg, Patient 008 Dose 200 mg, 24 hr (Day 2), read-out: Concentration): 70.4 µM
concentration at 168 h (200 mg, Patient 008 Dose 200 mg, 168 hr (Day 8), read-out: Concentration): 64.6 µM
concentration at 170 h [4]: 171 µM
concentration at 171 h (200 mg, Patient 008 Dose 200 mg, 171 hr, read-out: Concentration): 143 µM
concentration at 172 h (200 mg, Patient 008 Dose 200 mg, 172 hr, read-out: Concentration): 130 µM
concentration at 192 h (200 mg, Patient 008 Dose 200 mg, 192 hr (Day 9), read-out: Concentration): 110 µM
concentration at 336 hr (200 mg, Patient 008 Dose 200 mg, 336 hr (Day 15), read-out: Concentration): 124 µM
concentration at 338 hr [4]: 147 µM
concentration at 339 hr [4]: 172 µM
concentration at 340 h (200 mg, Patient 008 Dose 200 mg, 340 hr, read-out: Concentration): 192 µM
concentration at 360 h (200 mg, Patient 008 Dose 200 mg, 360 hr (Day 16), read-out: Concentration): 211 µM
concentration at 504 h (200 mg, Patient 008 Dose 200 mg, 504 hr (Day 22), read-out: Concentration): 277 µM
concentration at 506 h (200 mg, Patient 008 Dose 200 mg, 506 hr, read-out: Concentration): 282 µM
concentration at 507 h [4]: 368 µM
concentration at 508 h (200 mg, Patient 008 Dose 200 mg, 508 hr, read-out: Concentration): 281 µM
concentration at 528 h [4]: 285 µM
concentration at 672 hr (200 mg, Patient 008 Dose 200 mg, 672 hr (Day 29), read-out: Concentration): 337 µM
concentration at 674 hr (200 mg, Patient 008 Dose 200 mg, 674 hr, read-out: Concentration): 356 µM
concentration at 675 hr (200 mg, Patient 008 Dose 200 mg, 675 hr, read-out: Concentration): 321 µM
concentration at 676 h [4]: 364 µM
concentration at 696 h [4]: 426 µM
concentration at 840 h [4]: 425 µM
concentration at 842 h (200 mg, Patient 008 Dose 200 mg, 842 hr, read-out: Concentration): 361 µM
concentration at 843 h (200 mg, Patient 008 Dose 200 mg, 843 hr, read-out: Concentration): 397 µM
concentration at 844 h (200 mg, Patient 008 Dose 200 mg, 844 hr, read-out: Concentration): 414 µM
concentration at 864 h (200 mg, Patient 008 Dose 200 mg, 864 hr (Day 37), read-out: Concentration): 354 µM
concentration at 0 h (200 mg, Patient 009 Dose 200 mg): 0 µM
concentration at 2 h [5]: 93.4 µM
concentration at 3 h [5]: 61.2 µM
concentration at 4 h (200 mg, Patient 009 Dose 200 mg, 4 hr, read-out: Concentration): 71.1 µM
concentration at 24 h (200 mg, Patient 009 Dose 200 mg, 24 hr (Day 2), read-out: Concentration): 64.6 µM
concentration at 168 h (200 mg, Patient 009 Dose 200 mg, 168 hr (Day 8), read-out: Concentration): 60.1 µM
concentration at 170 h [5]: 149 µM
concentration at 171 h (200 mg, Patient 009 Dose 200 mg, 171 hr, read-out: Concentration): 170 µM
concentration at 172 h (200 mg, Patient 009 Dose 200 mg, 172 hr, read-out: Concentration): 139 µM
concentration at 192 h (200 mg, Patient 009 Dose 200 mg, 192 hr (Day 9), read-out: Concentration): 136 µM
concentration at 338 h [5]: 161 µM
concentration at 339 h [5]: 167 µM
concentration at 340 h (200 mg, Patient 009 Dose 200 mg, 340 hr, read-out: Concentration): 153 µM
concentration at 360 h (200 mg, Patient 009 Dose 200 mg, 360 hr (Day 16), read-out: Concentration): 218 µM
concentration at 504 h (200 mg, Patient 009 Dose 200 mg, 504 hr (Day 22), read-out: Concentration): 253 µM
concentration at 506 h (200 mg, Patient 009 Dose 200 mg, 506 hr, read-out: Concentration): 285 µM
concentration at 507 h [5]: 296 µM
concentration at 508 h (200 mg, Patient 009 Dose 200 mg, 508 hr, read-out: Concentration): 362 µM
concentration at 528 h [5]: 242 µM
concentration at 672 h (200 mg, Patient 009 Dose 200 mg, 672 hr (Day 29), read-out: Concentration): 251 µM
concentration at 674 h (200 mg, Patient 009 Dose 200 mg, 674 hr, read-out: Concentration): 472 µM
concentration at 675 h (200 mg, Patient 009 Dose 200 mg, 675 hr, read-out: Concentration): 261 µM
concentration at 676 h [5]: 358 µM
concentration at 696 h [5]: 338 µM
concentration at 840 h [5]: 399 µM
concentration at 842 h (200 mg, Patient 009 Dose 200 mg, 842 hr, read-out: Concentration): 346 µM
